{
  "source": "patent US20040224076A1",
  "about": "“Dietetic composition in the form of a salt substitute for table salt” (priority 1998, published 2004)",
  "origin": "cited, not measured here",
  "settings": "oral supplementation, meta-analysis of 33 studies",
  "data": [
    {"smiles": "[K+]", "note": "[potassium]", "values": [
      {"measurement": "reduction for diastolic pressure", "value": 1.97, "unit": "mm Hg"},
      {"measurement": "reduction for systolic pressure", "value": 3.11, "unit": "mm Hg"}
    ]}
  ]
}
